# Source: article PMC10630452, “The tumor-enriched small molecule gambogic amide suppresses glioma by targeting WDR1-dependent cytoskeleton remodeling” (Signal Transduction and Targeted Therapy, 2023)
# Experiments:
# [1] = system: GSC2 intracranial xenograft; assay: GSC2-derived intracranial xenograft model; format: in vivo, nude mice; details: 1 mg/kg i.v. daily for 13 days
# Method: Fig. 3 The inhibitory effects of GA-amide in glioma stem cell-derived mouse models and transgenic mouse models. a, b GSC2 cells were implanted s.c. into nude mice. Mice were treated with control (DMSO) (n = 7) or GA-amide (2 mg/kg) (n = 8) via i.p. injection once daily for 11 days, after which a photograph (a) was taken to show the tumor volume, and the tumor volume was calculated by a modified ellipsoid formula in (b). c, d GSC2 cells were implanted intracranially into nude mice. Mice were injected i.v. with control (n = 8) or 1 mg/kg GA-amide (n = 8) daily for 13 days, the Mantel‒Cox log–rank test was used for analysis, and the relative survival curves are shown in (c). The body weights are shown in (d). e In vivo efficacy studies of GA-amide using transgenic mouse models. Glioma was induced in transgenic C57BL/6 mice by injection of pTomo-Ras-sip53 lentivirus, and the strategy is shown. f, g MRI analysis was used to group mice into the control (n = 7) and GA-amide-treated groups (n = 8) before treatment. […]
# For the intracranial xenograft mouse models, 1 × 10^5 GSC2 or U87MG-SLC cells were injected into the frontal cortex (1 mm rostral to the bregma, 2 mm lateral to the midline, and 3 mm deep) using a microsyringe (Hamilton). […] The tumor size was measured by MRI, and survival analysis was performed in a blinded manner.
# WDR1 = target: T1, WDR1 (Homo sapiens, UniProt O75083); assay: Drug affinity responsive target stability (DARTS) in T2-4 cells; format: binding; details: T2-4 lysate, 1 h incubation, pronase 30 min
# T1 construct: GA-amide protected WDR1 at different temperature gradients in the CETSA in T2-4 cells; endogenous in cells; host or cells: T2-4 patient-derived glioma cells
# Method: The drug affinity responsive target stability (DARTS) method was performed following a previously described procedure.[32] In brief, cells were collected and lysed with M-PER lysis buffer (catalog 78501, Thermo Fisher Scientific) containing complete protease inhibitor (catalog 04693124001, Roche) and phosphatase inhibitors (catalog 04906845001, Roche). Then, the lysis buffer was supplemented with TNC buffer. The lysates were aliquoted into 1.5 mL tubes and incubated with DMSO or different concentrations of GA-amide for 1 h at room temperature. After incubation, the lysates were digested with 1 μg of pronase for every 300 μg of lysate for exactly 30 min. Then, protein loading buffer was added immediately, and the lysates were heated to stop proteolysis. Western blot analysis was performed for further analysis.
# infarct = details: subcutaneous injection of 2 mg/kg; cited from earlier work
# [2] = system: WDR1 knockout T2-4 and T12-1 cells; assay: Cell viability of WDR1 knockout PDCs; format: cell-based, human; details: WDR1 knockout T2-4 and T12-1 versus sg-NC
# Method: The data are representative of 3 wells, scale bar: 500 μm. j Statistical results of the recovery of invasion.
# For cell transfection, we first inserted the full-length cDNA encoding WDR1 and the WDR1 sequence with mutation of the four interaction sites into pcDNA3.1. Then, 293T cells were transiently transfected with these plasmids using Lipofectamine 3000 (Invitrogen). For cell transduction, WDR1 knockout and WDR1-overexpressing PDCs were generated by lentiviral transduction and selected by 1 µg/mL puromycin. All sg-WDR1 sequences are listed as follows: sg-WDR1 #2: 5′-[…]-3′, sg-WDR1 #3: 5′-[…]-3′, sg-WDR1 #4: 5′-[…]-3′, sg-WDR1 #5: 5′-[…]-3′. For cell transduction, CFL1 or MYH9 knockdown PDCs were generated by lentiviral transduction and selected by 1 µg/mL puromycin. All shRNA sequences are listed as follows: shCFL1-1: […], shCFL1-2: […], shMYH9-1: GCAAACCTCGAGAAGGCAA, shMYH9-2: GAAGTCAGCTCCCTAAAGA.
# [3] = system: TMZ-resistant cells (T2-4, GSC2 and T12-1); assay: Time curve cell viability assay (MTS); format: cell-based; details: PDCs and GSCs
# Method: Fig. 2 The BBB permeability and tumor suppressor ability of GA-amide compared with TMZ. GA-amide (a) or TMZ (b) concentration in the tumor area and normal brain tissue following a single injection of GA-amide (10 mg/kg, i.v.) or TMZ (10 mg/kg, i.v.). The data are presented as the means ± SEMs (n = 3). c Western blot analysis of the expression of TrkA in mouse tumor tissues (T) and normal brain tissues (N), n = 4. d Western blot analysis of glycosylated TrkA expression in human normal brain tissues (N) and glioma tissues of different grades. e Time curve of GA-amide and TMZ treatment in a cell viability assay (MTS) in T2-4, GSC2 and T12-1 cells. f–h A PDX mouse model was established, and the mice were treated with vehicle (control, n = 9), 2 mg/kg GA-amide (n = 9), 2 mg/kg GAC (n = 9) or […] TMZ (n = 8) by i.p. injection daily for 10 days. A summary photograph is presented in (f), statistical results in (g) and the body weights of mice in (h); the mean ± SEMs are shown. n.s: P ≥ 0.05, *P < 0.05, **P < 0.01 and ***P < 0.001 compared with the control group by one-way ANOVA at each time point
# T1 sequence (O75083 whole entry): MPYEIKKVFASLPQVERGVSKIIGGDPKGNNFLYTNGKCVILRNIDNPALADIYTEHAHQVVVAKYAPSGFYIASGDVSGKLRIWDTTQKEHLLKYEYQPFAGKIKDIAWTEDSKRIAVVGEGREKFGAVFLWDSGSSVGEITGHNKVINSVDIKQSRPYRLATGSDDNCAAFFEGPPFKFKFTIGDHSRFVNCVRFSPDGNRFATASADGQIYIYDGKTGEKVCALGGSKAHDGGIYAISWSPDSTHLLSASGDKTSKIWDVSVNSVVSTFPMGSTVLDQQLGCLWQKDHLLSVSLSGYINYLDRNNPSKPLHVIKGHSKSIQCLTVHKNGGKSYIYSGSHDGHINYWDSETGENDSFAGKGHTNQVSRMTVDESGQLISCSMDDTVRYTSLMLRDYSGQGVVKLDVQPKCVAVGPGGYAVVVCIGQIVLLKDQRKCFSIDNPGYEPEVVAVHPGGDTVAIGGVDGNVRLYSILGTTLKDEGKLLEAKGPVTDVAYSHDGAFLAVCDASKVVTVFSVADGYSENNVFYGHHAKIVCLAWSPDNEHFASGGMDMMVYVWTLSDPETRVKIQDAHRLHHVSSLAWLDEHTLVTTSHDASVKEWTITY
compound,measurement,setting,value
"CC(C)=CCC[C@]1(C)C=Cc2c(O)c3c(c(CC=C(C)C)c2O1)O[C@]12C(=C[C@@H]4CC1C(C)(C)O[C@@]2(C/C=C(/C)C(N)=O)C4=O)C3=O [GA-amide, gambogic amide]",mouse body weight versus control,[1],no significant difference in mouse body weight
same,survival,[1],prolonged survival times
same,WDR1 stabilization against pronase digestion,WDR1,significantly promoted WDR1 stabilization during pronase-induced degradation
same,infarct volume,infarct,significantly reduce the infarct volume
same,suppression of cell proliferation in WDR1 knockout cells,[2],decreased suppressive effects of GA-amide on cell proliferation
same,viability of TMZ-resistant cells over time,[3],effectively reduced the viability of TMZ-resistant cells
